One data set is described as follows: clinical. The following applies: human.
The next data set has as its target T1, Prolyl endopeptidase FAP (Homo sapiens, UniProt Q12884).
T1 sequence (Q12884 whole entry): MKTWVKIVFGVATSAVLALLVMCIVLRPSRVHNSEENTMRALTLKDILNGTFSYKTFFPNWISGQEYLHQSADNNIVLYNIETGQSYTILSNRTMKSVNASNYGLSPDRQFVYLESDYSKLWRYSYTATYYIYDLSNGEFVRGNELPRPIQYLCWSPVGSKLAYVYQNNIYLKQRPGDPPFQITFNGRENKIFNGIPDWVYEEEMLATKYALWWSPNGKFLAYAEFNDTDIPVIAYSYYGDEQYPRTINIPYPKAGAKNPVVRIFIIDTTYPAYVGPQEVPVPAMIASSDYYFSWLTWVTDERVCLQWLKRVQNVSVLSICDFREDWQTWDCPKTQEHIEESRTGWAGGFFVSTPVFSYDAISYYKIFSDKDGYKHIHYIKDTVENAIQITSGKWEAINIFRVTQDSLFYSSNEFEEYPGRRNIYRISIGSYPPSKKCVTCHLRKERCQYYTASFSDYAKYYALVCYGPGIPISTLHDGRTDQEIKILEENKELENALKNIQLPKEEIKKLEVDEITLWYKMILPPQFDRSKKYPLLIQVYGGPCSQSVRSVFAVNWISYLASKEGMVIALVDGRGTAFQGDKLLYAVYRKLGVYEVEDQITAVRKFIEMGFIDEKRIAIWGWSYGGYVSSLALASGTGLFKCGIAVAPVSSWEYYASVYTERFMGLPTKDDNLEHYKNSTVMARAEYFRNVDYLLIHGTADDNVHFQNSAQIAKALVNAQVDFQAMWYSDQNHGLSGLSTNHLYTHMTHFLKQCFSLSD
The experiment in a line: Inhibition of recombinant human FAP extracted from S2 cells using fluorogenic FAP as specific substrate measured after 10 mins incubation by 7-amino-4-methylcoumarin in assay.

Turning to `CC#CCn1c(N2CCC[C@@H](N)C2)nc2c1c(=O)n(Cc1nc(C)c3ccccc3n1)c(=O)n2C` [LINAGLIPTIN], in “clinical”, the highest level (Cmax) was 12 nM.
Regarding `C[C@H](Cn1cnc2c(N)ncnc21)OCP(=O)(O)O` [TENOFOVIR ANHYDROUS], the concentration for half-maximal inhibition (IC50) on Prolyl endopeptidase FAP was over 100 µM.
For `Cc1cc2ncc(C(=O)NCC(C)(C)NCC(=O)N3CCC[C@H]3C#N)cn2n1` [ANAGLIPTIN], in “clinical”, the highest concentration (Cmax) was 1200 nM.
`Nc1ncnc2c1ncn2CCOCP(=O)(O)O` [ADEFOVIR]: the half-inhibitory concentration (IC50) on Prolyl endopeptidase FAP was over 100 µM.

The values above are taken from ChEMBL document CHEMBL6087393, “Sensitive quantification of fibroblast activation protein and high-throughput screening for inhibition by FDA-approved compounds” (Eur J Med Chem, 2024).
